# From US11524966B1 (Valo Early Discovery, Inc., priority 2017, dated 2022)
# Target: T1, USP25 (USP25-His6, Boston Biochem E-546) (Homo sapiens, UniProt Q9UHP3)
# T1 construct: His6; purchased Boston Biochem E-546
# T1 sequence (Q9UHP3 1-1055): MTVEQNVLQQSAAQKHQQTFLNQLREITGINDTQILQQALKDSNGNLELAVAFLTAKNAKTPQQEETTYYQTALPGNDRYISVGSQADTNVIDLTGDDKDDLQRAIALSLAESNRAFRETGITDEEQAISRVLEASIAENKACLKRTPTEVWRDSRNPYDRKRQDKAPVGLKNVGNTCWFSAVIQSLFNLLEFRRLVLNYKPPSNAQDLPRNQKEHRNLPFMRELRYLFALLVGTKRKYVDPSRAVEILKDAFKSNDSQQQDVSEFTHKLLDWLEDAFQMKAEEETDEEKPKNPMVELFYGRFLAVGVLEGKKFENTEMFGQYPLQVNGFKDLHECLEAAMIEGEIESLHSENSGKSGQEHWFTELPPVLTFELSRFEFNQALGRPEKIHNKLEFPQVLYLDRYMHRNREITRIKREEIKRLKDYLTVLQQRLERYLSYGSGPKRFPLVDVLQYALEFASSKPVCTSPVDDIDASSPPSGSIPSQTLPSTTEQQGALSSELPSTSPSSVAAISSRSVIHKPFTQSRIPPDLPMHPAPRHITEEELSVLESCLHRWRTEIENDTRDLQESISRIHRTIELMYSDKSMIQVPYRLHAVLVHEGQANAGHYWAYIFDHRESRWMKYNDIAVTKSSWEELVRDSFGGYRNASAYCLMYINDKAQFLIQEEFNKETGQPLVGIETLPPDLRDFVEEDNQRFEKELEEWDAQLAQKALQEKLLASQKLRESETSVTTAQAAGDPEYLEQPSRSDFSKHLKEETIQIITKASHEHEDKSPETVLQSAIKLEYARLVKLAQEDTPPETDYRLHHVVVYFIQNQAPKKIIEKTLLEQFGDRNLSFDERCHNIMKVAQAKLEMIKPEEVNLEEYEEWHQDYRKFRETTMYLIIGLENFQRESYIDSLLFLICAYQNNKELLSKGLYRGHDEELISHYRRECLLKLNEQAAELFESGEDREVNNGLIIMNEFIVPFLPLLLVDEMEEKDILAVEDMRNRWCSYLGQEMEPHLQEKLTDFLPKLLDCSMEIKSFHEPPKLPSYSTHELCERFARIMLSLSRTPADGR
# Test: Ubiquitin-Rhodamine 110 Assay for USP25 Activity, Example A-2
# Format: biochemical
# Conditions: Ubiquitin-Rhodamine 110 assay, Example A-2; read-out: USP25 A-2 IC50 range
# Procedure, shortened: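 Cleavage of ubiquitin-rhodamine 110 (25 nM, well below Km) by His-tagged USP25 at 75 pM is measured fluorimetrically after 45 min at room temperature and acid quench. Inhibitors are preincubated with enzyme for 30 minutes. IC50 values come from four-parameter logistic curve fitting.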
row,Compound,IC50 [nM]
1,"Cc1ccc2c(N)c(C(=O)N[C@H]3COc4cc(C5(F)CCNCC5)ccc4C3)sc2n1 [Example 8-1, (R)-3-Amino-N-(7-(4-fluoropiperidin-4-yl)chroman-3-yl)-6-methylthieno[2,3-b]pyridine-2-carboxamide]",50 to 200
2,"Cc1ccc2c(N)c(C(=O)N[C@H]3COc4cc(N5CCNCC5)cc(F)c4C3)sc2n1 [Example 10-1, (R)-3-amino-N-(5-fluoro-7-(piperazin-1-yl)chroman-3-yl)-6-methylthieno[2,3-b]pyridine-2-carboxamide]",50 to 200
3,"CO[C@@H]1CN(c2cc(F)c3c(c2)OC[C@H](NC(=O)c2sc4nc(C)ccc4c2N)C3)C[C@H]1N [Example 10-2, 3-amino-N-((R)-7-((3R,4R)-3-amino-4-methoxypyrrolidin-1-yl)-5-fluorochroman-3-yl)-6-methylthieno[2,3-b]pyridine-2-carboxamide]",200 to 2000
4,"[2H]C1([2H])NC([2H])([2H])C([2H])([2H])N(c2cc(F)c3c(c2)OC[C@H](NC(=O)c2sc4nc(C)ccc4c2N)C3)C1([2H])[2H] [Example 10-4, (R)-3-amino-N-(5-fluoro-7-(piperazin-l-yl-2,2,3,3,5,5,6,6-d8)chroman-3-yl)-6-methylthieno[2,3-b]pyridine-2-carboxamide]",50 to 200
5,"Cc1ccc2c(N)c(C(=O)N[C@@H]3COc4cc(N5CCNCC5)cc(F)c4C3)sc2n1 [Example 10-5, (S)-3-amino-N-(5-fluoro-7-(piperazin-1-yl)chroman-3-yl)-6-methylthieno[2,3-b]pyridine-2-carboxamide]",> 2000
6,"Cc1ccc2c(N)c(C(=O)N[C@H]3COc4cc(N5CC6CNCC(C5)O6)cc(F)c4C3)sc2n1 [Example 10-6, N-((3R)-7-(9-oxa-3,7-diazabicyclo[3.3.1]nonan-3-yl)-5-fluorochroman-3-yl)-3-amino-6-methylthieno[2,3-b]pyridine-2-carboxamide]",50 to 200
7,"Cc1cc(C)c2c(N)c(C(=O)N[C@H]3COc4cc(N5CC6CC(C5)N6)cc(F)c4C3)sc2n1 [Example 10-7, N-((3R)-7-(3,6-diazabicyclo[3.1.1]heptan-3-yl)-5-fluorochroman-3-yl)-3-amino-4,6-dimethylthieno[2,3-b]pyridine-2-carboxamide]",50 to 200
8,"Cc1cnc2c(N)c(C(=O)N[C@H]3COc4cc(N5CC6CC(C5)N6)cc(F)c4C3)sc2n1 [Example 10-8, N-((3R)-7-(3,6-diazabicyclo[3.1.1]heptan-3-yl)-5-fluorochroman-3-yl)-7-amino-3-methylthieno[2,3-b]pyrazine-6-carboxamide]",50 to 200
9,"Cc1cc(C)c2c(N)c(C(=O)N[C@H]3COc4cc(N5CCNCC5)cc(F)c4C3)sc2n1 [Example 10-9, (R)-3-amino-N-(5-fluoro-7-(piperazin-1-yl)chroman-3-yl)-4,6-dimethylthieno[2,3-b]pyridine-2-carboxamide]",50 to 200
10,"Cc1cnc2c(N)c(C(=O)N[C@H]3COc4cc(N5CCNCC5)cc(F)c4C3)sc2n1 [Example 10-10, (R)-7-amino-N-(5-fluoro-7-(piperazin-1-yl)chroman-3-yl)-3-methylthieno[2,3-b]pyrazine-6-carboxamide]",50 to 200
11,"COc1ccc2c(N)c(C(=O)N[C@H]3COc4cc(N5CCNCC5)cc(F)c4C3)sc2n1 [Example 10-11, (R)-3-amino-N-(5-fluoro-7-(piperazin-1-yl)chroman-3-yl)-6-methoxythieno[2,3-b]pyridine-2-carboxamide]",50 to 200
12,"Cc1cnc2c(N)c(C(=O)N[C@H]3COc4cc(N5CC6CNCC(C5)O6)cc(F)c4C3)sc2n1 [Example 10-12, N-((3R)-7-(9-oxa-3,7-diazabicyclo[3.3.1]nonan-3-yl)-5-fluorochroman-3-yl)-7-amino-3-methylthieno[2,3-b]pyrazine-6-carboxamide]",1 to 50
13,"Cc1cc(C)c2c(N)c(C(=O)N[C@H]3COc4cc(N5CC6CNCC(C5)O6)cc(F)c4C3)sc2n1 [Example 10-13, N-((3R)-7-(9-oxa-3,7-diazabicyclo[3.3.1]nonan-3-yl)-5-fluorochroman-3-yl)-3-amino-4,6-dimethylthieno[2,3-b]pyridine-2-carboxamide]",1 to 50
14,"Cc1cc(C(F)(F)F)c2c(N)c(C(=O)N[C@H]3COc4cc(N5CCNCC5)cc(F)c4C3)sc2n1 [Example 10-14, (R)-3-amino-N-(5-fluoro-7-(piperazin-1-yl)chroman-3-yl)-6-methyl-4-(trifluoromethyl)thieno[2,3-b]pyridine-2-carboxamide]",50 to 200
15,"Cc1ccc2c(N)c(C(=O)N(C)[C@H]3COc4cc(N5CCNCC5)cc(F)c4C3)sc2n1 [Example 10-15, 3-amino-N-[(3R)-5-fluoro-7-(piperazin-1-yl)-3,4-dihydro-2H-1-benzopyran-3-yl)-N,6-dimethylthieno[2,3-b]pyridine-2-carboxamide]",> 2000

# Same assay, conditions: Ubiquitin-Rhodamine 110 assay, format Example A-2; read-out: USP25 A-2 IC50 range
row,Compound,IC50 [nM]
1,"Cc1ccc2c(N)c(C(=O)N[C@@H]3CCc4cc(N5CCNCC5)c(F)cc4C3)sc2n1 (single isomer, unassigned) [Example 21-7]",200 to 2000
2,"Cc1ccc2c(N)c(C(=O)N[C@H]3CCc4cc(N5CCNCC5)c(F)cc4C3)sc2n1 (single isomer, unassigned) [Example 21-8]",> 2000
3,"Cc1ccc2c(N)c(C(=O)N[C@H]3CCc4c(F)c(N5CCNCC5)cc(F)c4C3)sc2n1 (single isomer, unassigned) [Example 22-1]",> 2000
4,"Cc1ccc2c(N)c(C(=O)N[C@@H]3CCc4c(F)c(N5CCNCC5)cc(F)c4C3)sc2n1 (single isomer, unassigned) [Example 22-2]",50 to 200
5,"Cc1ccc2c(N)c(C(=O)N[C@H]3CCc4c(F)c(N5CC6CNCC(C5)O6)cc(F)c4C3)sc2n1 (single isomer, unassigned) [Example 22-3]",> 2000
6,"Cc1ccc2c(N)c(C(=O)N[C@@H]3CCc4c(F)c(N5CC6CNCC(C5)O6)cc(F)c4C3)sc2n1 (single isomer, unassigned) [Example 22-4]",1 to 50
7,"Cc1ccc2c(N)c(C(=O)N[C@@H]3CCc4c(F)c(N5CC6CCC(C5)N6)cc(F)c4C3)sc2n1 (single isomer, unassigned) [Example 22-6]",> 2000
8,"CO[C@H]1CN(c2ccc3c(n2)CC[C@H](NC(=O)c2sc4nc(C)cnc4c2N)C3)C[C@@H]1N (single isomer, unassigned) [Example 23-1]",> 2000
9,"CO[C@H]1CN(c2ccc3c(n2)CC[C@@H](NC(=O)c2sc4nc(C)cnc4c2N)C3)C[C@@H]1N (single isomer, unassigned) [Example 23-2]",> 2000
10,"Cc1ccc2c(N)c(C(=O)N[C@H]3COc4cc(N5CC6CCC(C5)N6)c(F)c(F)c4C3)sc2n1 [Example 13-3, N-((3R)-7-(3,8-diazabicyclo[3.2.1]octan-3-yl)-5,6-difluorochroman-3-yl)-3-amino-6-methylthieno[2,3-b]pyridine-2-carboxamide]",> 2000
11,"Cc1ccc2c(N)c(C(=O)N[C@@H]3COc4cc(N5CC6CCC(C5)N6)c(F)c(F)c4C3)sc2n1 [Example 13-4, N-((3S)-7-(3,8-diazabicyclo[3.2.1]octan-3-yl)-5,6-difluorochroman-3-yl)-3-amino-6-methylthieno[2,3-b]pyridine-2-carboxamide]",50 to 200
12,"Cc1ccc2c(N)c(C(=O)N[C@H]3COc4cc(N5CCNCC5)c(Cl)cc4C3)sc2n1 [Example 13-5, (R)-3-amino-N-(6-chloro-7-(piperazin-1-yl)chroman-3-yl)-6-methylthieno[2,3-b]pyridine-2-carboxamide]",> 2000
13,"Cc1ccc2c(N)c(C(=O)N[C@@H]3COc4c(ccc(N5CCNCC5)c4Cl)C3)sc2n1 [Example 13-8, (S)-3-amino-N-(8-chloro-7-(piperazin-1-yl)chroman-3-yl)-6-methylthieno[2,3-b]pyridine-2-carboxamide]",> 2000
14,"Cc1ccc2c(N)c(C(=O)N[C@H]3COc4c(ccc(N5CCNCC5)c4Cl)C3)sc2n1 [Example 13_7, (R)-3-amino-N-(8-chloro-7-(piperazin-1-yl)chroman-3-yl)-6-methylthieno[2,3-b]pyridine-2-carboxamide]",50 to 200
15,"Cc1ccc2c(N)c(C(=O)N[C@H]3COc4cc(N5CCNCC5)ncc4C3)sc2n1 [Example 16, (R)-3-Amino-6-methyl-N-(7-(piperazin-1-yl)-3,4-dihydro-2H-pyrano[3,2-c]pyridin-3-yl)thieno[2,3-b]pyridine-2-carboxamide]",200 to 2000
